Test results from PubChem BioAssay AID2745 (NMMLSC, 2010).
“And” between values parts separate entries of the source, which are not always exact repeats. Equal entries are not always repeated. The source made the active and inactive calls. No rule for the calls is given here.

test: LAP4-GFP modulation potency in yeast, dose response, cell-based, MLPCN hits, flow cytometry (AID 2745);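 also: yeast exposed to compound for three hours at 30 degrees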; conditions: S. cerevisiae LAP4-GFP reporter, flow cytometry fluorescence; at 33 µM (top of the series)

Row | SMILES | LAP4-GFP fluorescence (kMESF)
1 | COc1ccc(-c2cc3cc(C(=O)O)ccn3c2C(=O)c2ccccc2)cc1 | 6.45 kMESF (inactive)
2 | Cc1[nH]c2ccccc2c1C(=O)COC(=O)c1ccc([N+](=O)[O-])s1 | 6.02 kMESF (inactive)
3 | O=C1C(Cl)=C(NCCc2ccccc2)C(=O)N1CCc1ccccc1 | 5.91 kMESF (inactive)
4 | CCCCC1OC23CCCCC2C(C#N)(C(=N)O3)C1(C#N)C#N (stereo not drawn) | 3.98 kMESF (inactive)
5 | Cc1ccc(C(=O)/C=C/C(=O)c2ccc(C)cc2)cc1 | 6.7 kMESF (inactive)
6 | CCn1c(=O)c(C(C)=O)c(O)c2ccccc21 | 6.66 kMESF (inactive)
7 | CCCCc1ccc(NC(=O)CC(C)=O)cc1 | 3.54 kMESF (inactive)
8 | COc1ccc(N2C(=O)C(Cl)=C(NCc3ccccc3)C2=O)cc1 | 6.61 kMESF (inactive)
9 | COc1ccc2c(/C=C/c3cc[n+](C)cc3)c[nH]c2c1 | 3.71 kMESF (inactive)
10 | CCC(=O)Nc1ccc(NC(=O)c2cc3ccccc3o2)cc1 | 3.31 kMESF (inactive)
11 | CC[C@@]1(c2ccccc2OC)ON(c2ccccc2C(F)(F)F)C1=O | 6.51 kMESF (inactive)
12 | CC(OC(=O)c1ccco1)C(=O)Nc1nc(-c2ccccc2)cs1 (stereo not drawn) | 3.33 kMESF (inactive)
13 | O=C1C(Cl)=C(Nc2ccccc2O)C(=O)N1CCc1ccccc1 | 5.01 kMESF (inactive)
14 | Cc1ccccc1[C@@]1(C)ON(c2ccccc2C(F)(F)F)C1=O | 5.8 kMESF (inactive)
15 | CC(=O)N(C1=C(Cl)C(=O)c2ccccc2C1=O)C1CCCCC1 | -2.43 kMESF (inactive)
16 | O=[N+]([O-])c1cnc(Sc2ccncn2)s1 | 17.8 kMESF (inactive)
17 | CC(Oc1cc2oc(=O)c3c(c2cc1Cl)CCC3)C(=O)NCCN1CCOCC1 (stereo not drawn) | 2.43 kMESF (inactive)
18 | CC1=C(C)/C(=N\OS(=O)(=O)c2ccc(C)cc2)C=CC1=O | 5.77 kMESF (inactive)
19 | CC(C)C(=O)NC(c1cccs1)c1cc([N+](=O)[O-])c2cccnc2c1O (stereo not drawn) | 10.5 kMESF (inactive)
20 | COc1ccccc1[C@@]1(C)ON(c2ccccc2C(F)(F)F)C1=O | 7.08 kMESF (inactive)
21 | O=C1C=CC(=O)N1c1ccc(Sc2ccc([N+](=O)[O-])cc2)cc1 | 5.47 kMESF (inactive)

Row | SMILES | LAP4-GFP fluorescence (kMESF)
22 | Oc1c(CN2CCCCC2)cc(Br)c2cccnc12 | 16 kMESF (inactive)
23 | O=C(CCS(=O)(=O)c1ccccc1)Nc1nc(-c2ccccn2)cs1 | 3.91 kMESF (inactive)
24 | C=CCn1c(C)c(/C=C/c2cc[n+](C)cc2)c2ccccc21 | 10.8 kMESF (inactive)
25 | CCN(CC)c1ccc(/C=C2/C(=O)c3ccc(C(=O)O)cc3C2=O)cc1 | 13.8 kMESF (inactive)
26 | C=CCN1C(=O)/C(=C/c2ccc(-c3ccc(F)cc3)o2)SC1=S | 15 kMESF (inactive)
27 | COCCN1C(=O)/C(=C/c2ccc(N3CCCC3)cc2C)SC1=S | 7.02 kMESF (inactive)
28 | CCOC(=O)CS(=O)(=O)c1nc(-c2ccc(F)cc2)cc(C(F)(F)F)n1 | 11.2 kMESF (inactive)
29 | CC(=O)NN1C(=O)/C(=C/c2ccc(Br)o2)SC1=S | 2.52 kMESF (inactive)
30 | CCOC(=O)CSC1=NC(=O)/C(=C/c2ccc(OC)cc2)S1 | 6.28 kMESF (inactive)
31 | O=C(O)c1ccn2c(C(=O)c3ccccc3)c(-c3ccccc3)cc2c1 | 7.25 kMESF (inactive)
32 | CCCCc1ccc(/C=C2/C(=O)ON=C2c2ccccc2)s1 | 3.67 kMESF (inactive)
33 | Cc1ccc(S(=O)(=O)/N=C(\Sc2ccccc2)c2ccccc2)cc1 | 6.11 kMESF (inactive)
34 | O=C(Oc1cccc2cccnc12)c1ccc(Br)o1 | 3.74 kMESF (inactive)
35 | Cc1cc(Br)c2c(c1)/C(=C/C(=O)c1cccs1)C(=O)N2 | 6.22 kMESF (inactive)
36 | COc1ccc2c(c1)c1nnc(SC)nc1n2C | 4.19 kMESF (inactive)
37 | Cc1[nH][nH]c(=O)c1C(c1ccc(-c2ccc(Cl)c(Cl)c2)o1)c1c(C)[nH][nH]c1=O | 6.01 kMESF (inactive)
38 | O=[N+]([O-])c1cc(CN2CCN(c3cccc(C(F)(F)F)c3)CC2)c2cccnc2c1O | 7.46 kMESF (inactive)
39 | Cc1nc2ccc(NC(=O)c3oc4ccc(F)cc4c3C)cc2s1 | 3.28 kMESF (inactive)
40 | Cc1ccc(-c2nc(C)sc2CC(=O)Nc2nnc(C)s2)cc1 | 3.81 kMESF (inactive)
41 | Clc1cnc(N/N=C/c2cccs2)c(Cl)c1 | 6.2 kMESF (inactive)
42 | COc1cccc2c(=O)c(C(=O)NCc3cccs3)c[nH]c12 | 2.13 kMESF (inactive)

Row | SMILES | LAP4-GFP fluorescence (kMESF)
43 | Cc1cc(C)c(S(=O)(=O)N2CCC(C(=O)NCc3ccc(Cl)cc3Cl)CC2)c(C)c1 | 4.35 kMESF (inactive)
44 | O=C1CC(c2ccccc2)=NN1c1nc(-c2ccccc2)cs1 | 3.94 kMESF (inactive)
45 | O=C(OCC(=O)N1CCN(C(=O)c2ccco2)CC1)c1cc(-c2ccc(Cl)c(Cl)c2Cl)nc2ccccc12 | 4.61 kMESF (inactive)
46 | O=C(OCC(=O)N1CCN(C(=O)c2ccco2)CC1)c1cc(-c2ccc(F)cc2)nc2ccccc12 | 9.57 kMESF (inactive) and 4.75 kMESF (inactive)
47 | O=C1NC(=O)N(CCc2ccc(F)cc2)C(=O)/C1=C/c1cccs1 | 9.69 kMESF (inactive)
48 | C=CCN1C(=O)/C(=C/c2cccs2)C(=O)NC1=S | 4.47 kMESF (inactive)
49 | O=C(OCn1ncc(Br)c(Br)c1=O)c1ccccc1Cl | 10.5 kMESF (inactive)
50 | Cc1ccccc1[C@]1(C)ON(c2ccccc2C(F)(F)F)C1=O | 3.24 kMESF (inactive)
51 | Cc1nn2c(NCc3ccccn3)c3c(nc2c1-c1ccccc1)CCC3 | 7.76 kMESF (inactive)
52 | COc1cc(/C=C2\C(=O)ON=C2c2ccc(Cl)cc2)ccc1O | 9.12 kMESF (inactive)
53 | COc1ccc(CCNC2=C(Cl)C(=O)N(CCc3ccc(OC)c(OC)c3)C2=O)cc1OC | 5.91 kMESF (inactive)
54 | CC(=O)Oc1cccc(N2C(=O)c3cccc4c([N+](=O)[O-])ccc(c34)C2=O)c1 | 5.16 kMESF (inactive)
55 | CN(C)c1ccc(N=Cc2nc(-c3ccccc3)oc2OC(=O)c2cccc(Cl)c2)cc1 | 3.99 kMESF (inactive)
56 | CC(=O)Oc1oc(-c2ccccc2)nc1C=Nc1ccccc1 | 8.16 kMESF (inactive)
57 | COc1cc(/C=C/c2ccc3c(Br)cc(Br)c(O)c3n2)ccc1O | 11.7 kMESF (inactive)
58 | COc1ccc(N2C(=O)C(Cl)=C(Nc3c(C)n(C)n(-c4ccccc4)c3=O)C2=O)cc1 | 4.31 kMESF (inactive)
59 | COc1ccccc1N=Cc1nc(-c2ccccc2)oc1OC(C)=O | 8.6 kMESF (inactive)
60 | COc1ccccc1N1C(=O)c2cccc3c(C(=O)O)ccc(c23)C1=O | 6.85 kMESF (inactive)
61 | COc1ccc(CCNC2=C(Cl)C(=O)N(CCc3ccccc3)C2=O)cc1OC | 3.31 kMESF (inactive)
62 | C[C@@]12C(=O)OC(=O)[C@]1(C)C1CCC2O1 | 9.15 kMESF (inactive)
63 | Cc1ccc(/C=C2\SC(=S)N(Cc3ccccc3)C2=O)o1 | 18.1 kMESF (inactive)
